Laboratory results from patent publication US6924278B2, “Aroyl-piperazine derivatives, their preparation and their use as tachykinin antagonists” (Fujisawa Pharmaceutical Co., Ltd., priority 1997, dated 2005).

Columns and labels:
[1] = tested on: emesis in the ferret; experiment: Emesis in the ferret (copper sulfate-induced retching and vomiting); type: in vivo; conditions: dose of 1.0 mg/kg i.v., 30 min before intra-gastric copper sulfate (40 mg/kg/ml), observed for the next 30 min
Procedure: Individually housed adult male ferrets (Marshall Farms, 1.4 to 2.2 kg) were given an i.v. injection of a solution contatining a test compound. 30 Min later the emetic responses (retching and vomiting) were induced by administration of intra-gastric copper sulfate (40 mg/kg/ml) and observed for the next 30 min. The timing and number of retches and vomits observed were recorded for each animal. An individual animal was tested with at least 10 days between experiments.

[2] = biological target: T1, h-NK1 receptors (Homo sapiens, UniProt P25103); experiment: Evaluation of NK1 antagonist transport efficiency to the central nervous system using a h-NK1 receptor binding assay (brain extract after i.v. dosing of rats); conditions: 5 min; compound extracted from brain of male SD rats 5 min after i.v. injection at the dose of 1 mg/kg; CHO cell membranes expressing h-NK1; read-out: inhibition rate of 125I-BH-Substance P binding to h-NK1 receptors
T1 construct: expressed in transfected cells; host or cells: CHO cells (permanent expression), crude cell membranes
Procedure: A. Evaluation of NK1 Antagonist Transport Efficiency to the Cental Nervous System using a h-NK1 Receptor Binding Assay
(1) Administration of Test Compound and Extraction of the Compound from Brain
Male SD rats were given an i.v. injection of a solution containing a test compound (1 mg/kg). 5 Min later the animals were anesthetized by ether, bled and perfused through the aorta ascendens with 20 ml of saline. The brain was rapidly removed, weighed and homogenized in 4 vol. ice-cold distilled water by using Polytoron (KINEMATICA). To extract the test compound, 500 μl of the homogenate, 100 μl of methanol, 500 μl of 0.1 N NaOH and 4 ml of ethyl acetate were mixed by shaking for 10 min at room temperature. The organic phase (2.5 ml) was recovered by centrifugation at 3,000 rpm for 10 min, dried and dissolved in dimethyl sulfoxide.
(2) h-NK1 Receptor Binding Assay
(a) Crude CHO Cell Membrane Preparation
CHO cells permanently expressing h-NK1 receptors were harvested and homogenized with a Dounce homogenizer at 4° C. in a buffer (0.25 M sucrose, 25 mM Tris-HCl (pH 7.4), 10 mM MgCl2, 1 mM EDTA, 5 μg/ml p-APMSF). The homogenate was centrifuged (500×g, 10 min), and the pellet was resuspended in the same buffer, homogenized, and centrifuged. The two supernatants were combined and centrifuged (100,000×g, 1 hour). The crude cell membranes thus isolated were resuspended in a buffer (25 mM Tris-HCl (pH 7.4), 10 mM MgCl2, 1 mM. EDTA, 5 μg/ml p-APMSF) and stored at −80° C. until use.
(b) ^125I-BH-Substance P Binding to the Prepared Membrane
Cell membranes (6 μg/ml) were incubated with ^125I-BH-Substance P (0.1 nM) with or without the extracted compounds in 0.25 ml of a medium (50 mM Tris-HCl (pH 7.4), 5 mM MnCl2, 20 μg/ml chymostatin, 40 μg/ml bacitracin, 4 μg/ml leupeptin, 5 μg/ml p-APMSF, 200 μg/ml BSA) at 22° C. for 90 min. At the end of the incubation period, the contents were quickly filtered through a Blue Mat 11740 filter (pretreated with 0.1% polyethylenimine for 3 hours prior to use) by using SKATRON Cell Harvester. The filter was then washed with a washing buffer (50 mM Tris-HCl (pH 7.4), 5 mM MnCl2). The radioactivity was counted by using an auto gamma counter (Packard RIASTAR 5420A). All data presented are specific binding defined as that displaceable by 3 μM unlabeled Substance P.

T1 sequence (P25103 whole entry): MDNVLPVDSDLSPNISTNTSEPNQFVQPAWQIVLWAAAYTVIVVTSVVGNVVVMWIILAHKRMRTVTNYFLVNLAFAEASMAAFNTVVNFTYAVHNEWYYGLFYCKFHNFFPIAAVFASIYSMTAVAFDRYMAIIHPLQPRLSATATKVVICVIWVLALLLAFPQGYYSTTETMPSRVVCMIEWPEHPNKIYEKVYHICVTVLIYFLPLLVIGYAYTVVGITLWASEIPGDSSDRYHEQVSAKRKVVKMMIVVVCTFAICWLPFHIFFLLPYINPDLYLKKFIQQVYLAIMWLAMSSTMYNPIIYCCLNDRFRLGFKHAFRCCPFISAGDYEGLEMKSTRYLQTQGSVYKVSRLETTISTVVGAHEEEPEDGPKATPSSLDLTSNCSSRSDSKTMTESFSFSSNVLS

Row | melting point | inhibition at 1 mg/kg [2] [%] | Compound | inhibition rate of emesis in the ferret [1] [%]
1 | 160 to 170 °C | > 80 | COC[C@H]1CN(CCN2CCN(C(=O)c3cc(C(F)(F)F)cc(C(F)(F)F)c3)[C@H](Cc3ccc(C)c(C)c3)C2)CCO1.Cl.Cl [81-(5), (2R)-1-[3,5-Bis(trifluoromethyl)benzoyl]-2-(3,4-dimethylbenzyl)-4-[2-((2R)-2-methoxymethylmorpholino)ethyl]piperazine dihydrochloride] | 
2 | 210 to 225 °C | > 80 | CN(C)c1cc(C(=O)N2CCN(CC#CCN3CCOCC3(C)C)C[C@H]2Cc2c[nH]c3ccccc23)cc(C(F)(F)F)c1.Cl.Cl [90-(2), (2R)-1-[3-(Dimethylamino)-5-(trifluoromethyl)benzoyl]-4-[4-(3,3-dimethylmorpholino)-2-butynyl]-2-[(1H-indol-3-yl)methyl]piperazine dihydrochloride] | 
3 | 165 to 177 °C | > 80 | Cl.Cl.O=C(c1cc(C(F)(F)F)cc(C(F)(F)F)c1)N1CCN(C/C=C\c2cccnc2)C[C@H]1Cc1c[nH]c2ccccc12 [Example 5-(2), (2R)-1-[3,5-Bis(trifluoromethyl)benzoyl]-2-[(1H-indol-3-yl)methyl]-4-[(Z)-3-(3-pyridyl)-2-propenyl]piperazine dihydrochloride] | 
4 | 175 °C (dec.) | > 80 | Cc1ccc(C[C@@H]2CN(CC#CCN3CCOCC3)CCN2C(=O)c2cc(Cl)cc(Cl)c2)cc1C.Cl.Cl [Example 15, (2R)-1-(3,5-dichlorobenzoyl)-2-(3,4-dimethylbenzyl)-4-(4-morpholino-2-butynyl)piperazine dihydrochloride] | 
5 | 91 °C (dec.) | > 80 | Cc1ccc(C[C@@H]2CN(CCCc3cn(C)cn3)CCN2C(=O)c2cc(C(F)(F)F)cc(C(F)(F)F)c2)cc1C.Cl.Cl [Example 18, (2R)-1-[3,5-bis(trifluoromethyl)benzoyl]-2-(3,4-dimethylbenzyl)-4-[3-(1-methyl-1H-imidazol-4-yl)propyl]piperazine dihydrochloride] | 
6 | 225 to 232 °C | > 80 | Cc1ccc(C[C@@H]2CN(C/C=C/[C@@H]3COCCN3)CCN2C(=O)c2cc(C(F)(F)F)cc(C(F)(F)F)c2)cc1C.Cl.Cl [Example 45, (2R)-1-[3,5-bis(trifluoromethyl)benzoyl]-2-(3,4-dimethylbenzyl)-4-[(2E)-3-[(3R)-3-morpholinyl]-2-propenyl]piperazine dihydrochloride] | 

The next lines start with the molecule.

Row | Compound | melting point | inhibition at 1 mg/kg [2] [%] | inhibition rate of emesis in the ferret [1] [%]
7 | Cl.Cl.O=C(c1cc(C(F)(F)F)cc(C(F)(F)F)c1)N1CCN(CCCc2ccccn2)C[C@H]1Cc1c[nH]c2ccccc12 [4-(2), (2R)-1-[3,5-Bis(trifluoromethyl)benzoyl]-2-[(1H-indol-3-yl)methyl]-4-[3-(2-pyridyl)propyl]piperazine dihydrochloride] | 80 to 100 °C |  | 100
8 | CC1(C)COCCN1CC#CCN1CCN(C(=O)c2cc(C(F)(F)F)cc(C(F)(F)F)c2)C(Cc2cc3ccccc3[nH]2)C1.Cl.Cl (centres unmarked) [89-(1), 1-[3,5-Bis(trifluoromethyl)benzoyl]-2-[(1H-indol-2-yl)methyl]-4-[4-(3,3-dimethylmorpholino)-2-butynyl]piperazine dihydrochloride] | 185 °C | > 80 | 
9 | CC1(C)COCCN1CC#CCN1CCN(C(=O)c2cc([N+](=O)[O-])cc(C(F)(F)F)c2)[C@H](Cc2c[nH]c3ccccc23)C1.Cl.Cl [90-(3), (2R)-4-[4-(3,3-Dimethylmorpholino)-2-butynyl]-2-[(1H-indol-3-yl)methyl]-1-[3-nitro-5-(trifluoromethyl)benzoyl]piperazine dihydrochloride] | 198 to 220 °C | > 80 | 
10 | CNc1cc(C(=O)N2CCN(CC#CCN3CCOCC3(C)C)C[C@H]2Cc2ccc(C)c(C)c2)cc(C(F)(F)F)c1.Cl.Cl [90-(4), (2R)-2-(3,4-Dimethylbenzyl)-4-[4-(3,3-dimethylmorpholino)-2-butynyl]-1-[3-(methylamino)-5-(trifluoromethyl)benzoyl]piperazine dihydrochloride] | 195 to 205 °C | > 80 | 
11 | Cc1ccc(C[C@@H]2CN(CC#CCN3CCOCC3(C)C)CCN2C(=O)c2cc([N+](=O)[O-])cc(C(F)(F)F)c2)cc1C.Cl.Cl [90-(6), (2R)-2-(3,4-Dimethylbenzyl)-4-[4-(3,3-dimethylmorpholino)-2-butynyl]-1-[3-nitro-5-(trifluoromethyl)benzoyl]piperazine dihydrochloride] | 157 to 200 °C | > 80 | 
12 | Cc1ccc(C[C@@H]2CN(CCCNN3CCOCC3)CCN2C(=O)c2cc(Cl)cc(Cl)c2)cc1C.Cl.Cl [Example 17, (2R)-1-(3,5-dichlorobenzoyl)-2-(3,4-dimethylbenzyl)-4-(N-morpholino-3-aminopropyl)piperazine dihydrochloride] | 71 °C (dec.) | > 80 | 
13 | Cc1ccc(C[C@@H]2CN(CCCN(C=O)N3CCOCC3)CCN2C(=O)c2cc(C(F)(F)F)cc(C(F)(F)F)c2)cc1C.Cl [Example 26] |  |  | 100
14 | Cc1ccc(C[C@@H]2CN(Cc3cnn(CCN4CCOCC4)c3)CCN2C(=O)c2cc(C(F)(F)F)cc(C(F)(F)F)c2)cc1C.Cl.Cl [Example 29, (2R)-1-[3,5-bis(trifluoromethyl)benzoyl]-2-(3,4-dimethylbenzyl)-4-[[1-(2-morpholinoethyl)-1H-pyrazol-4-yl]methyl]piperazine dihydrochloride] | 115 to 116 °C | > 80 | 100
15 | CN(CCN1CCN(C(=O)c2cc(C(F)(F)F)cc(C(F)(F)F)c2)[C@H](Cc2ccc3ccccc3c2)C1)Cc1cccnc1.Cl.Cl [Example 40] |  |  | 100
16 | CN(CCN1CCN(C(=O)c2cc(C(F)(F)F)cc(C(F)(F)F)c2)[C@H](Cc2c[nH]c3ccccc23)C1)Cc1cccnc1.Cl.Cl [Example 41, (2R)-1-[3,5-Bis(trifluoromethyl)benzoyl]-2-[(1H-indol-3-yl)methyl]-4-[2-[N-methyl-N-(3-pyridylmethyl)amino]ethyl]piperazine dihydrochloride] |  |  | 100
17 | Cc1ccc(C[C@@H]2CN(CC#C[C@@H]3COCCN3)CCN2C(=O)c2cc(C(F)(F)F)cc(C(F)(F)F)c2)cc1C.Cl.Cl [Example 68, (2R)-1-[3,5-bis(trifluoromethyl)benzoyl]-2-(3,4-dimethylbenzyl)-4-[3-[(3R)-morpholin-3-yl]-2-propynyl]piperazine dihydrochloride] | 190 to 191 °C | > 80 | 
